# Test results reported in US20070172912A1, “Method for fluorescently staining tissue” (PENTAX Corporation, priority 2006, published 2007).
# System: slices of the large intestines
# Assay: Degree of permeation of staining solution in slices of large intestines, varying pH
# Design: species or system rat
# Details: 0.1 mg/mL, pH 4.0, 5.0, 6.0, 7.0 and saline
# Experimental: Slices of the large intestines used in Example 4 were observed, and the degree of permeation of a staining solution was observed. Fluorescein sodium was adjusted to 0.1 mg/mL in the same way as in Example 4 by dilution with solutions with pH 4.0, 5.0, 6.0, and 7.0 and a saline. Imaging was performed with a fluorescence microscope (manufactured by ZEISS, LSM510) under imaging conditions including a pinhole diameter of 1.0 and Max, and 20× and 40× lenses were used.
structure (smiles),measurement,value
"O=C1OC2(c3ccc(O)cc3Oc3cc(O)ccc32)c2ccccc21 [F—Na, fluorescein sodium]",difference in the degree of permeation into the tissues between staining solutions with varying pH,no significant difference
